Measured values from PubChem BioAssay (NCI).
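A five-concentration, 48-hour dose response in 96-well plates underlies each endpoint, interpolated linearly between surrounding concentrations. TGI is the concentration that stops growth completely.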

Experiments:
Test in all cases: NCI tumour cell line growth inhibition, 48 h
COLO 205 colon = test system: COLO 205 colon
SK-MEL-5 melanoma = test system: SK-MEL-5 melanoma
SF-295 CNS = test system: SF-295 CNS
OVCAR-4 ovarian = test system: OVCAR-4 ovarian
NCI-H23 lung = test system: NCI-H23 lung
U251 CNS = test system: U251 CNS
EKVX NSCLC = test system: EKVX NSCLC
MOLT-4 leukemia = test system: MOLT-4 leukemia
MDA-N = test system: MDA-N
CCRF-CEM leukemia = test system: CCRF-CEM leukemia
MDA-MB-435 = test system: MDA-MB-435
HS 578T breast = test system: HS 578T breast
MDA-MB-231 breast = test system: MDA-MB-231 breast
SF-539 CNS = test system: SF-539 CNS
SNB-19 CNS = test system: SNB-19 CNS
KM12 colon = test system: KM12 colon
MALME-3M melanoma = test system: MALME-3M melanoma
HOP-92 NSCLC = test system: HOP-92 NSCLC
HCC-2998 colon = test system: HCC-2998 colon

| Compound | TGI (COLO 205 colon) [µM] | TGI (SK-MEL-5 melanoma) [µM] | TGI (SF-295 CNS) [µM] | TGI (OVCAR-4 ovarian) [µM] | TGI (NCI-H23 lung) [µM] | TGI (U251 CNS) [µM] | TGI (EKVX NSCLC) [µM] | TGI (MOLT-4 leukemia) [µM] | TGI (MDA-N) [µM] | TGI (CCRF-CEM leukemia) [µM] | TGI (MDA-MB-435) [µM] | TGI (HS 578T breast) [µM] | TGI (MDA-MB-231 breast) [µM] | TGI (SF-539 CNS) [µM] | TGI (SNB-19 CNS) [µM] | TGI (KM12 colon) [µM] | TGI (MALME-3M melanoma) [µM] | TGI (HOP-92 NSCLC) [µM] | TGI (HCC-2998 colon) [µM] |
| --- | --- | --- | --- | --- | --- | --- | --- | --- | --- | --- | --- | --- | --- | --- | --- | --- | --- | --- | --- |
| CC(=O)N(C)CCc1c[nH]c2ccccc12 | > 100 | > 100 | > 100 | > 100 | > 100 | > 100 | > 100 | > 100 | > 100 | > 100 | > 100 | > 100 | > 100 | > 100 | > 100 | > 100 | > 100 |  |  |
| COC(=O)NC(C(F)(F)F)(C(F)(F)F)P1(=O)OCCCO1 | 69.9 | 40.6 | 55.3 | > 100 | 50.9 | 29.8 |  | > 100 | 70.3 | > 100 | 46.1 | > 100 | 62.9 | 43 | 78.7 | 64.7 |  | > 100 |  |
| CN1C(=O)C2CCCC(=O)N2c2cccnc21 (centres undefined) | > 100 | > 100 | > 100 | > 100 | > 100 | > 100 | > 100 | > 100 | > 100 | > 100 | > 100 | > 100 | > 100 | > 100 | > 100 | > 100 | > 100 |  | > 100 |
| O=c1c2ncn(C3CCCO3)c2n(-c2ccccc2)c(=S)n1-c1ccccc1 (centres undefined) | > 100 | > 100 | > 100 | > 100 | > 100 | > 100 | > 100 | > 100 |  | > 100 | > 100 |  | > 100 | > 100 |  | > 100 |  |  | > 100 |
| C=CN1C(=O)[C@H](Oc2ccccc2)[C@@H]1c1ccccc1 |  | > 100 | > 100 |  | 60 | > 100 | > 100 | 91.3 |  | > 100 |  |  |  | 31.1 | > 100 | > 100 | > 100 |  | > 100 |
| CCOC(=O)[C@H](C)OC(=O)[C@@](C)(NC(=O)c1ccccc1C(=O)OC)[C@@H]1NC=C(C(=O)OC)CS1 | > 100 | > 100 | > 100 | > 100 | > 100 | > 100 | > 100 | > 100 | 64.6 | 63.9 | 85.6 | > 100 | > 100 |  | > 100 | > 100 | > 100 |  | > 100 |
| O=C1c2ccccc2C(=O)c2c1nc1ccccc1c2-c1cncc(-c2c3c(nc4ccccc24)C(=O)c2ccccc2C3=O)c1 | 19.8 | 4.22 | 22.8 | > 100 | 2.62 | > 45.8 | > 100 | 12.2 |  | 43.9 | 3.96 | 14.7 | 98.2 | 60.5 | > 82.7 | > 61.6 | 24.1 | > 43.7 | 49.7 |
| CC(C)=CC1CC(=[N+]=[N-])C(=O)C1(C)C (centres undefined) | > 100 | > 100 | > 100 | > 100 | > 100 | > 100 | > 100 | > 100 |  | > 83.7 |  |  |  | > 100 | > 100 | > 100 | > 100 | > 100 | > 100 |
| O=C(Cn1c(-c2ccccc2)cc2ccccc21)N1CCCC1 | > 100 | > 100 | > 100 | > 100 |  |  | > 100 | > 100 | > 100 |  |  | > 100 | > 100 |  | > 100 |  | > 100 | > 100 |  |
| CC1CN=C(N(C(=O)Nc2ccc(Cl)c(Cl)c2)c2ccccc2)S1 (centres undefined) | > 100 | 50.8 | > 100 | > 100 | > 100 | > 100 | > 100 | > 100 | > 100 | > 100 |  | > 100 | > 100 | > 100 | > 100 | > 100 | > 100 | > 100 | > 100 |
| COC(=O)c1nsc(OC)c1Cl | > 100 | > 100 | > 100 | > 100 | > 100 | > 100 | > 100 | > 100 | > 100 | > 100 | > 100 | > 100 | > 100 | > 100 | > 100 | > 100 | > 100 |  | > 100 |
| CC(=O)NC1=N/C(=C\c2ccc(Cl)cc2)C(=O)N1/C=C1\C(=O)Oc2ccccc2C1=O | > 100 | > 100 | > 100 | > 100 | > 100 | > 100 | > 100 | > 100 | > 100 | > 100 | > 100 | 6.22 | > 100 | > 100 | > 100 | > 100 | > 100 |  | > 100 |
| CCOC(=O)/C(=C/c1ccc(N(C)C)cc1)N(CC)CC | > 100 |  | > 100 | > 100 | > 100 | > 100 | > 100 | > 100 |  | 91.9 |  |  |  | > 100 | > 100 | > 100 | > 100 | > 100 | > 100 |
| C=CCN1CCC(O)(c2cc(C(=O)OCC)[nH]c2-c2cc(C)no2)C1 (centres undefined) | > 100 | > 100 | > 100 | > 100 | > 100 | > 100 | > 100 | > 100 | > 100 | > 100 | > 100 |  | > 100 | > 100 | > 100 | > 100 | > 100 | > 100 |  |
| COC(=O)[C@@]1(C)/C(=N/NS(=O)(=O)c2ccc(C)cc2)CCC[C@@H]1C | > 100 | > 100 | > 100 | > 100 | > 100 | > 100 | > 100 | > 100 |  | > 100 |  |  |  | > 100 | > 100 | > 100 | > 100 | > 100 | > 100 |
